Measurements from patent US20130315843A1, “COMPOSITION FOR REDUCTION OF TRPA1 AND TRPV1 SENSATIONS” (priority 2012, published 2013).
Like-named read-outs stand apart in the source and are kept apart here.

Key:
human TRPV1 = human TRPV1 (Homo sapiens, UniProt Q8NER1); experiment: FLIPR Ca2+ assay, reduction of L-Menthol activation of TRPV1; details: for Average Ca2+ Counts / % Reduction of L-Menthol TRPV1 Activation: antagonist 100 μM against 1 mM L-Menthol; for inhibition at 100 µM: read-out: % Reduction of L-Menthol TRPV1 Activation
Experimental: To determine whether TRPV1 was activated, the intracellular calcium ion (Ca^+2) levels from cells transfected with the TRPV1 receptor gene was measured. HEK-239 cells stably transfected with human TRPV1 were grown in 15 ml growth medium [high glucose DMEM (Dulbecco's Modification of Eagle's Medium) supplemented with 10% FBS (fetal bovine serum), 100 g/ml Penicillin/streptomycin, 100 g/ml G418] in a 75 Cm2 flask for 3 days at 33° C. in a mammalian cell culture incubator set at 5% CO2. Cells were detached with addition of 10 ml of PBS (phosphate buffered saline) by hand shaking gently. Cells were transferred to a 50 ml tube and centrifuged at 850 rpm for 3 minutes to remove PBS. After centrifugation, a pellet of cells formed in the bottom of the tube separating them from the supernatant solution. The supernatant was discarded and the cell pellet suspended in 1 ml of fresh growth medium to which 5 μl (12.5 g) of Fluo-4 AM (Molecular Probes, Inc., Eugene, Oreg.) calcium indicator was added and incubated for 30 minutes with gentle shaking.
The pelleted cells were re-suspended in 10 ml assay buffer and 90 μl aliquots (˜50,000 cells) per well delivered to a 96-well assay plate containing 10 μl of test compounds (1 mM in assay buffer, final concentration 100 μM) or buffer control and incubated at room temperature for 30 minutes. After 30 minutes, the plate was placed into a fluorometric imaging plate reader (FLIPR384 from Molecular Devices) and basal fluorescence recorded (excitation wave length 488 nm and emission wave length 510 nm). Then 20 μl of the compound being tested as a TRPV1 receptor activator was added and fluorescence recorded. […] It may be no difference (no effect), or negative (means antagonist or desensitizer) or positive (enhancer, also known as positive allosteric modulator). […] To determine if a compound was an antagonist or a desensitizer, the direct effect of a test compound was determined. For determining the direct effect of test compounds on TRPV1, 100 μl aliquots (˜50,000 cells) of cells prepared as described above were delivered to a 96-well assay plate and basal fluorescence recorded as noted above. Then 20 μl of the compound being tested as a TRPV1 receptor activator was added and fluorescence recorded. If any increase in fluorescence over background was noted, then the compound was considered an agonist. The agonist activity was expressed relative to that observed with a benchmark agonist such as 350 nM Capsaicin for TRPV1.
100 μM of antagonist was tested against 1 mM of L-Menthol to determine the level of reduced TRPV1 receptor activation by L-Menthol. Each antagonist compound was run with 1 mM of L-Menthol as a control and the antagonist activity of each compound was determined by comparing the Ca^2+ levels of the control with the antagonist compound being tested.

human TRPA1 = human TRPA1 (Homo sapiens, UniProt O75762); experiment: FLIPR Ca2+ assay, reduction of hydrogen peroxide activation of TRPA1; type: cell-based; parameters: expressed in transfected cells
Experimental: After centrifugation, a pellet of cells was formed in the bottom of the tube separating them from the supernatant solution.
The pelleted cells were re-suspended in 10 ml assay buffer and 90 μl aliquots (˜50,000 cells) per well delivered to a 96-well assay plate containing 10 μl of test compounds ([…]) or buffer control and incubated at room temperature for 30 minutes.

[1] = compound 100 μM against 200 μM hydrogen peroxide, Sets 1-4
[2] = compound 100 μM against 200 μM hydrogen peroxide, Sets 1-4, read-out: % Reduction of Hydrogen Peroxide TRPA1 Activation
[3] = 100 μM antagonist vs 500 μM hydrogen peroxide
[4] = read-out: % Reduction of Hydrogen Peroxide TRPA1 Activation

human TRPV1, sequence (Q8NER1 whole entry): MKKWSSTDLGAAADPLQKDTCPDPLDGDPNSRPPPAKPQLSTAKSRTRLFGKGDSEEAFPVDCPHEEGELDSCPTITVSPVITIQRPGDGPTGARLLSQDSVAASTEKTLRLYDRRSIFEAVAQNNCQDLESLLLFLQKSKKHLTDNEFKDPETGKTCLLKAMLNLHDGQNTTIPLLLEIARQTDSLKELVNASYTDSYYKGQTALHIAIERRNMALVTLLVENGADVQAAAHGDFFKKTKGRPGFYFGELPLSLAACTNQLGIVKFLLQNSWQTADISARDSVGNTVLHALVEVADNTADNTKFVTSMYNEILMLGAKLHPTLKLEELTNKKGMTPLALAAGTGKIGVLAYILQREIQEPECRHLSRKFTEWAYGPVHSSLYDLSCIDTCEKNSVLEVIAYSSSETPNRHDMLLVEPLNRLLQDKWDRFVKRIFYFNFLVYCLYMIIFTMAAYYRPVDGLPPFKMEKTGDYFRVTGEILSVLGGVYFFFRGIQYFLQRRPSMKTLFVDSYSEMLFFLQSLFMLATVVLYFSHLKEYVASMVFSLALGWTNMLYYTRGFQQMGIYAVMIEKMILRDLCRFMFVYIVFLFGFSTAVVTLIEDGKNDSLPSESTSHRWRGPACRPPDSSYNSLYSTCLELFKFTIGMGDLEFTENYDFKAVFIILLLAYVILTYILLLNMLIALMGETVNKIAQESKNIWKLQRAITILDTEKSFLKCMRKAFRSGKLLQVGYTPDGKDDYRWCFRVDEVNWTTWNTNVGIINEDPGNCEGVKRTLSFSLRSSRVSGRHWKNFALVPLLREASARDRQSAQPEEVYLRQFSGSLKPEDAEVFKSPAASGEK
human TRPA1, sequence (O75762 whole entry): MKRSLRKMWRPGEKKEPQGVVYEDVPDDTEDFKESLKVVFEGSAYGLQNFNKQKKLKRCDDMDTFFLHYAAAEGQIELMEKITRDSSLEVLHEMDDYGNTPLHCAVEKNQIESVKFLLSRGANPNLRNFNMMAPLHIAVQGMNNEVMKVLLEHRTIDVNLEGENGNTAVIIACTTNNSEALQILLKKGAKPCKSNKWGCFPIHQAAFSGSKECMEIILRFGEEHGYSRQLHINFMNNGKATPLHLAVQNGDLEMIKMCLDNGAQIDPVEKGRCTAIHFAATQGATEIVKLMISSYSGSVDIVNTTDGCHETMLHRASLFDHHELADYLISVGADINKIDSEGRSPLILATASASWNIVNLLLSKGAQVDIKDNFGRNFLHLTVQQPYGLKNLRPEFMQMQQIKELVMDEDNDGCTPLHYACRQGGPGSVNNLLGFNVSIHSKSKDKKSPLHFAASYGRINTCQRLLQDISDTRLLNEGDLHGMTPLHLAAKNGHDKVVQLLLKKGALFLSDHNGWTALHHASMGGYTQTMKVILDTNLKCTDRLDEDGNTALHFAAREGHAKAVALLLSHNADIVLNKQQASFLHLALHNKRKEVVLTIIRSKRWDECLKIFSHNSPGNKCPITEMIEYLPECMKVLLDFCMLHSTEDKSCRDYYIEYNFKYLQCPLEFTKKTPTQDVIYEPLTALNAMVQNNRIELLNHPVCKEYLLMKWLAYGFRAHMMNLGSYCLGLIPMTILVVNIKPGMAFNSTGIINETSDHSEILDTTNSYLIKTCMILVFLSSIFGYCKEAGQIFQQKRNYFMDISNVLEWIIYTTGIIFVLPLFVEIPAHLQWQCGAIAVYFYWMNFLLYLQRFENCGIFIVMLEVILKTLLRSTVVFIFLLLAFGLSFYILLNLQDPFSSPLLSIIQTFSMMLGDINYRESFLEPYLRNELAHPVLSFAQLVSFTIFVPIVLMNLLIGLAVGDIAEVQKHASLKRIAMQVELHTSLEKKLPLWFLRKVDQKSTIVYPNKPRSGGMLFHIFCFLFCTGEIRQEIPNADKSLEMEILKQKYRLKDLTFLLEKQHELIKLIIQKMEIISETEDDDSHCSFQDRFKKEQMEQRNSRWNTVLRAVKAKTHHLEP

Molecule: CC(O)c1ccccc1 (racemic) [(+−)-1-phenylethanol]
- Average Ca2+ Counts (human TRPV1): 1087.7 Counts
- inhibition at 100 µM (human TRPV1): 41.6%

Molecule: CC(C)=CCCC(C)CCO (racemic) [(+−)-beta;-citronellol]
- % Reduction of L-Menthol TRPV1 Activation (human TRPV1): 22.5%
- Average Ca2+ Counts (human TRPV1): 1501.3 Counts

Molecule: CCCCCCCCCCO [1-decanol]
- Average Ca2+ Counts (human TRPV1): 1175.7 Counts
- inhibition at 100 µM (human TRPV1): 37.5%

Molecule: COc1ccc(C)cc1C [2,4-dimethylanisole]
- Average Ca2+ Counts (human TRPV1): 1255.3 Counts
- inhibition at 100 µM (human TRPV1): 33.9%

Molecule: COc1cccc(OC)c1O [2,6-dimethoxyphenol]
- Average Ca2+ Counts (human TRPV1): 1365.0 Counts
- inhibition at 100 µM (human TRPV1): 28.8%

Molecule: CC(=O)c1cccn1C [2-acetyl-1-methylpyrrole]
- Average Ca2+ Counts (human TRPV1): 1254.0 Counts
- inhibition at 100 µM (human TRPV1): 33.9%

Molecule: CCc1occc(=O)c1O [2-ethyl-3-hydroxy-4h-pyran-4-one]
- Average Ca2+ Counts (human TRPV1): 1095.3 Counts
- inhibition at 100 µM (human TRPV1): 41.3%

Molecule: SCCc1cnccn1 [2-pyrazinylethanethiol]
- Average Ca++ Counts (human TRPA1; [1]): 1987.5 Counts
- inhibition at 100 µM (human TRPA1; [2]): 81.2%
- Average Ca2+ Counts (human TRPV1): 992.0 Counts
- inhibition at 100 µM (human TRPV1): 46%

Molecule: CCC(C)C1CCCCC1=O (stereo not drawn) [2-sec.-butylcyclohexanone]
- Average Ca2+ Counts (human TRPV1): 1352.3 Counts
- inhibition at 100 µM (human TRPV1): 29.4%

Molecule: CC(O)C(C)S (stereo not drawn) [3-mercapto-2-butanol]
- Average Ca2+ Counts (human TRPV1): 1008.3 Counts
- inhibition at 100 µM (human TRPV1): 45.3%

Molecule: CCOc1ccc(C=O)cc1 [4-ethoxybenzaldehyde]
- Average Ca2+ Counts (human TRPV1): 1200.0 Counts
- inhibition at 100 µM (human TRPV1): 36.4%

Molecule: COc1ccc(C(C)=O)cc1 [4′-methoxyacetophenone]
- Average Ca2+ Counts (human TRPV1): 1162.0 Counts
- inhibition at 100 µM (human TRPV1): 38.2%

Molecule: CC(=O)OCC1=CCC2CC1C2(C)C (stereo not drawn) [6,6-dimethylbicyclo[3.1.1]hept-2-ene-2-methyl acetate]
- % Reduction of L-Menthol TRPV1 Activation (human TRPV1): 24.9%
- Average Ca2+ Counts (human TRPV1): 1448.3 Counts

Molecule: O=C1O[C@H]([C@@H](O)CO)C([O-])=C1O.[Na+] [(+)-sodium 1-ascorbate]
- % Reduction of L-Menthol TRPV1 Activation (human TRPV1): 26.6%
- Average Ca2+ Counts (human TRPV1): 2961.0 Counts

Molecule: C[C@@H](CO)c1ccccc1 [(r)-(+)-2-phenyl-1-propanol]
- Average Ca2+ Counts (human TRPV1): 1414.0 Counts
- inhibition at 100 µM (human TRPV1): 26.5%

Molecule: CCCCOC(=O)C(C)CC (stereo not drawn) [butyl 2-methylbutyrate]
- Average Ca2+ Counts (human TRPV1): 1233.7 Counts
- inhibition at 100 µM (human TRPV1): 34.9%

Molecule: C/C=C/C(=O)OCC/C=C\CC [crotonic acid cis-3-hexen-1-yl ester]
- Average Ca2+ Counts (human TRPV1): 1150.0 Counts
- inhibition at 100 µM (human TRPV1): 38.7%

Molecule: CCOC(=O)C1OC1(C)c1ccccc1 (stereo not drawn) [empg]
- % Reduction of L-Menthol TRPV1 Activation (human TRPV1): 38.1%
- Average Ca2+ Counts (human TRPV1): 1164.0 Counts

Molecule: CCC1CCC(=O)O1 (stereo not drawn) [gamma-caprolactone]
- Average Ca2+ Counts (human TRPV1): 1084.3 Counts
- inhibition at 100 µM (human TRPV1): 41.8%

Molecule: CC1=CCC(C(C)C)=CC1 [gamma-terpinene]
- Block of hydrogen peroxide activation of TRPA1 (human TRPA1; [3]): BLOCK ONLY H2O2/TRPA1
- Average Ca++ Counts (human TRPA1; [1]): 3124.0 Counts
- inhibition at 100 µM (human TRPA1; [2]): 55.6%

Molecule: CC(=O)C(=O)OCCC(C)C [isoamyl pyruvate]
- Block of hydrogen peroxide activation of TRPA1 (human TRPA1; [3]): BLOCK ONLY H2O2/TRPA1
- Average Ca++ Counts (human TRPA1; [1]): 2824.0 Counts
- inhibition at 100 µM (human TRPA1; [2]): 59.9%

Molecule: CC(C)COC(=O)C(C)C [isobutyl isobutyrate]
- Block of hydrogen peroxide activation of TRPA1 (human TRPA1; [3]): BLOCK ONLY H2O2/TRPA1
- Average Ca++ Counts (human TRPA1; [1]): 3383.0 Counts
- inhibition at 100 µM (human TRPA1; [2]): 52%

Molecule: CC(C)CCO [isopentyl alcohol]
- Block of hydrogen peroxide activation of TRPA1 (human TRPA1; [3]): BLOCK ONLY H2O2/TRPA1
- Average Ca++ Counts (human TRPA1; [1]): 3778.0 Counts
- inhibition at 100 µM (human TRPA1; [2]): 56.7%

Molecule: CCCCCC(=O)OC(C)C [isopropyl hexanoate]
- Block of hydrogen peroxide activation of TRPA1 (human TRPA1; [3]): BLOCK ONLY H2O2/TRPA1
- Average Ca++ Counts (human TRPA1; [1]): 2862.0 Counts
- inhibition at 100 µM (human TRPA1; [2]): 59.4%

Molecule: O=C(O)CC(O)C(=O)O (stereo not drawn) [malic acid]
- Block of hydrogen peroxide activation of TRPA1 (human TRPA1; [3]): BLOCK ONLY H2O2/TRPA1
- Average Ca++ Counts (human TRPA1; [1]): 5617.5 Counts
- inhibition at 100 µM (human TRPA1; [2]): 47%

Molecule: COC(=O)c1ccc(O)cc1 [methyl 4-hydroxybenzoate]
- Block of hydrogen peroxide activation of TRPA1 (human TRPA1; [3]): BLOCK ONLY H2O2/TRPA1
- Average Ca++ Counts (human TRPA1; [1]): 4904.5 Counts
- inhibition at 100 µM (human TRPA1; [2]): 53.7%

Molecule: CCCCCCCCCCCC(=O)OC [methyl laurate]
- Average Ca2+ Counts (human TRPV1): 1199.7 Counts
- inhibition at 100 µM (human TRPV1): 36.4%

Molecule: CCCCC/C=C\C/C=C\CCCCCCCC(=O)OC [methyl linoleate]
- Block of hydrogen peroxide activation of TRPA1 (human TRPA1; [3]): BLOCK ONLY H2O2/TRPA1
- Average Ca++ Counts (human TRPA1; [1]): 3363.5 Counts
- inhibition at 100 µM (human TRPA1; [2]): 52.2%

Molecule: CCCCC/C=C/C(=O)OC [methyl trans-2-octenoate]
- Average Ca2+ Counts (human TRPV1): 1538.7 Counts
- inhibition at 100 µM (human TRPV1): 20.7%

Molecule: COC(=O)c1ccccc1 [methylbenzoate]
- Average Ca++ Counts (human TRPA1): 3817.0 Counts
- Block of hydrogen peroxide activation of TRPA1 (human TRPA1): BLOCK ONLY H2O2/TRPA1
- inhibition at 100 µM (human TRPA1; [4]): 56.2%

Molecule: CCCCO [n-butyl alcohol]
- % Reduction of Hydrogen Peroxide TRPA1 Activation (human TRPA1): 57.3%
- Average Ca++ Counts (human TRPA1): 3009.0 Counts
- Block of hydrogen peroxide activation of TRPA1 (human TRPA1): BLOCK ONLY H2O2/TRPA1

Molecule: C/C=C(/C)C1CCC(C)(C)O1 (stereo not drawn) [ocimene quintoxide]
- % Reduction of L-Menthol TRPV1 Activation (human TRPV1): 34.7%
- Average Ca2+ Counts (human TRPV1): 1236.3 Counts

Molecule: Cc1ccc(C(C)(C)O)cc1 [p-cymen-8-ol]
- % Reduction of Hydrogen Peroxide TRPA1 Activation (human TRPA1): 50.6%
- Average Ca++ Counts (human TRPA1): 3476.5 Counts
- Block of hydrogen peroxide activation of TRPA1 (human TRPA1): BLOCK ONLY H2O2/TRPA1

Molecule: OCc1ccccc1 [phenyl-methanol]
- Block of hydrogen peroxide activation of TRPA1 (human TRPA1; [3]): BLOCK ONLY H2O2/TRPA1
- Average Ca++ Counts (human TRPA1; [1]): 5244.5 Counts
- inhibition at 100 µM (human TRPA1; [2]): 50.5%

Molecule: CC(C)CC(=O)OCCc1ccccc1 [phenylethyl isovalerate]
- Block of hydrogen peroxide activation of TRPA1 (human TRPA1; [3]): BLOCK ONLY H2O2/TRPA1
- Average Ca++ Counts (human TRPA1; [1]): 3291.5 Counts
- inhibition at 100 µM (human TRPA1; [2]): 53.3%

Molecule: CCC(O)c1ccccc1 (stereo not drawn) [phenylpropanol (1-phenyl 1-propanol), 1-phenyl 1-propanol]
- Average Ca2+ Counts (human TRPV1): 1218.3 Counts
- inhibition at 100 µM (human TRPV1): 35.6%

Molecule: c1ccc2ncccc2c1 [quinoline]
- Block of hydrogen peroxide activation of TRPA1 (human TRPA1; [3]): BLOCK ONLY H2O2/TRPA1
- Average Ca++ Counts (human TRPA1; [1]): 3440.0 Counts
- inhibition at 100 µM (human TRPA1; [2]): 51.2%

Molecule: O=C1O[C@H]([C@H](O)CO)C([O-])=C1O.[Na+] [sodium erythorbate]
- % Reduction of Hydrogen Peroxide TRPA1 Activation (human TRPA1): 54.5%
- Average Ca++ Counts (human TRPA1): 3204.5 Counts
- Block of hydrogen peroxide activation of TRPA1 (human TRPA1): BLOCK ONLY H2O2/TRPA1

Molecule: Cc1ccc(C(C)C)c(O)c1 [thymol]
- Average Ca2+ Counts (human TRPV1): 1331.3 Counts
- inhibition at 100 µM (human TRPV1): 30.3%

Molecule: CCC/C=C/C=O [trans-2-Hexenal]
- Block of hydrogen peroxide activation of TRPA1 (human TRPA1): BLOCK ONLY H2O2/TRPA1
- inhibition at 400 µM (human TRPA1; [4]): 52%

Molecule: CCC/C=C/C(OCC)OCC [trans-2-hexen-1-al diethyl acetal]
- Average Ca2+ Counts (human TRPV1): 1169.0 Counts
- inhibition at 100 µM (human TRPV1): 37.9%

Molecule: NC(N)=O [urea]
- % Reduction of Hydrogen Peroxide TRPA1 Activation (human TRPA1): 52.4%
- Average Ca++ Counts (human TRPA1): 5045.5 Counts
- Block of hydrogen peroxide activation of TRPA1 (human TRPA1): BLOCK ONLY H2O2/TRPA1

Molecule: CCCCCCCCC1CCC(=O)O1 (stereo not drawn) [γ-Dodecalactone]
- % Reduction of Hydrogen Peroxide TRPA1 Activation (human TRPA1): 51%
- Block of hydrogen peroxide activation of TRPA1 (human TRPA1): BLOCK ONLY H2O2/TRPA1

Molecule: CCCCCCC1(C)CCC(=O)O1 (stereo not drawn) [γ-Methyl Decalactone]
- Block of hydrogen peroxide activation of TRPA1 (human TRPA1; [3]): BLOCK ONLY H2O2/TRPA1
- % Reduction of Hydrogen Peroxide TRPA1 Activation (human TRPA1; antagonist 100 μM against 200 μM hydrogen peroxide): 48%

Molecule: d-(−)-lactic acid
- % Reduction of L-Menthol TRPV1 Activation (human TRPV1): 41.3%
- Average Ca2+ Counts (human TRPV1): 1093.7 Counts

Molecule: desoxycholic acid
- % Reduction of Hydrogen Peroxide TRPA1 Activation (human TRPA1): 56.6%
- Average Ca++ Counts (human TRPA1): 3058.5 Counts
- Block of hydrogen peroxide activation of TRPA1 (human TRPA1): BLOCK ONLY H2O2/TRPA1
